This is an account of results in ChEMBL document CHEMBL1649078, “Novel antiviral C5-substituted pyrimidine acyclic nucleoside phosphonates selected as human thymidylate kinase substrates” (J Med Chem, 2011).

Broadly, the EC50 is the concentration that produces a half-maximal response. As a reminder, the CC50 is the concentration that lowers cell viability or growth by half.

Activity calls are given as the source filed them. No rule for the calls is given here.

Data set [1] is filed under the species Homo sapiens. Kind of data set: Activity at human recombinant UCK by Michaelis-Menten equation analysis.
Data set [2] is filed under the species Homo sapiens. As to the kind of experiment: Displacement of MABA-CDP from human recombinant UCK by fluorescence competition assay.
Data set [3] has as its system Human alphaherpesvirus 3. As to the kind of experiment: Antiviral activity against VZV OKA expressing thymidine kinase infected in human HEL cells assessed as reduction of virus-induced cytopathogenicity after 5 days. The data set is classed as functional, organism-based. The note with it: Human alphaherpesvirus 3, OKA, 120 h. For orientation: Cytopathic effects are the visible damage that an infection or toxin causes in cultured cells.

The subject of another data set is Human alphaherpesvirus 2. As to the kind of experiment: Antiviral activity against HSV2 G infected in human HEL cells assessed as reduction of virus-induced cytopathogenicity after 7 days. The class given is functional, organism-based. The note with it: Human alphaherpesvirus 2, strain G, 168 h.
The test system of data set [4] is Human alphaherpesvirus 1. As to the kind of experiment: Antiviral activity against HSV1 KOS infected in human HEL cells assessed as reduction of virus-induced cytopathogenicity after 7 days. The data set is classed as functional, organism-based. The settings on record: Human alphaherpesvirus 1, KOS, 168 h.
Data set [5] is described as follows: Cytotoxicity against human HEL cells after 3 days. The class given is cell-based.
Data set [6] deals with Human alphaherpesvirus 1. As to the kind of experiment: Antiviral activity against acyclovir-resistant thymidine kinase deficient HSV1 KOS infected in human HEL cells assessed as reduction of virus-induced cytopathogenicity after 7 days. The note with it: Human alphaherpesvirus 1, KOS, 168 h. The data set is classed as functional, organism-based.
For data set [7], the system named is Human alphaherpesvirus 3. As to the kind of experiment: Antiviral activity against thymidine kinase-deficient VZV 07/1 infected in human HEL cells assessed as reduction of virus-induced cytopathogenicity after 5 days. The class given is functional, organism-based. The settings on record: Human alphaherpesvirus 3, 07/1, HEL, 120 h.
For another data set, the system named is Human betaherpesvirus 5. Kind of data set: Antiviral activity against HCMV AD169/Davis infected in human HEL cells assessed as reduction of virus-induced cytopathogenicity after 7 days. The data set is classed as functional, organism-based. The note with it: Human betaherpesvirus 5, AD169/Davis, 168 h.

As to `CCOP(=O)(CC/C=C/Cn1ccc(=O)[nH]c1=O)OCC`, the outcome in the data set filed under Homo sapiens [1] and in the data set filed under Homo sapiens [2] was inactive.

In the case of `CCOP(=O)(CC/C=C/Cn1cc(C)c(=O)[nH]c1=O)OCC`, the result in the data set listed under Homo sapiens [1] and in the data set listed under Homo sapiens [2] was inactive.

In the case of `CCOP(=O)(/C=C/Cn1cc(Cl)c(=O)[nH]c1=O)OCC`, the outcome in the data set filed under Homo sapiens [1] and in the data set listed under Homo sapiens [2] was inactive.

For the compound `COP(=O)(C/C=C/Cn1cc(Cl)c(=O)n(C(=O)c2ccccc2)c1=O)OC`, the result in the data set listed under Homo sapiens [1] and in the data set listed under Homo sapiens [2] was inactive.

Regarding `COP(=O)(C/C=C/Cn1ccc(=O)n(C(=O)c2ccccc2)c1=O)OC`, the outcome in the data set filed under Homo sapiens [1] and in the data set listed under Homo sapiens [2] was inactive.

As for `COP(=O)(C/C=C\Cn1cc(Br)c(=O)[nH]c1=O)OC`, the outcome in the data set filed under Homo sapiens [1] and in the data set listed under Homo sapiens [2] was inactive.

Consider `CCOP(=O)(CC/C=C/Cn1cc(F)c(=O)n(C(=O)c2ccccc2)c1=O)OCC`, for which the outcome in the data set listed under Homo sapiens [1] and in the data set filed under Homo sapiens [2] was inactive.

Consider `CCOP(=O)(CC/C=C/Cn1cc(F)c(=O)[nH]c1=O)OCC`, for which the outcome in the data set listed under Homo sapiens [1] and in the data set listed under Homo sapiens [2] was inactive.

On to `COP(=O)(C/C=C/Cn1ccc(=O)[nH]c1=O)OC`, for which the outcome in the data set listed under Homo sapiens [1] and in the data set listed under Homo sapiens [2] was inactive.

On to `CCOP(=O)(CC/C=C/Cn1cc(Cl)c(=O)n(C(=O)c2ccccc2)c1=O)OCC`, for which the result in the data set filed under Homo sapiens [1] and in the data set filed under Homo sapiens [2] was inactive.

In the case of `O=c1ccn(C/C=C/P(=O)(O)O)c(=O)[nH]1`, the result in the data set filed under Homo sapiens [1] and in the data set filed under Homo sapiens [2] was inactive.

`COP(=O)(C/C=C/Cn1cc(Br)c(=O)[nH]c1=O)OC`: the outcome in the data set listed under Homo sapiens [1] and in the data set listed under Homo sapiens [2] was inactive.

`COP(=O)(C/C=C/Cn1cc(F)c(=O)n(C(=O)c2ccccc2)c1=O)OC`: the result in the data set listed under Homo sapiens [1] and in the data set filed under Homo sapiens [2] was inactive.

As to `COP(=O)(C/C=C\Cn1cc(Cl)c(=O)[nH]c1=O)OC`, the result in the data set listed under Homo sapiens [1] and in the data set listed under Homo sapiens [2] was inactive.

In the case of `COP(=O)(C/C=C\Cn1cc(Br)c(=O)n(C(=O)c2ccccc2)c1=O)OC`, the result in the data set listed under Homo sapiens [1] and in the data set listed under Homo sapiens [2] was inactive.

Regarding `Cc1cn(C/C=C\CP(=O)(OCOC(=O)C(C)(C)C)OCOC(=O)C(C)(C)C)c(=O)[nH]c1=O`, the result in the data set filed under Homo sapiens [1] and in the data set filed under Homo sapiens [2] was inactive. Besides, the concentration for a half-maximal effect (EC50) in the data set with Human alphaherpesvirus 3 [3] was more than 40 µM; in the data set with Human alphaherpesvirus 2, more than 40 µM; in the data set with Human alphaherpesvirus 1 [4], more than 40 µM; in the data set with Human alphaherpesvirus 1 [6] it was more than 40 µM; in the data set with Human alphaherpesvirus 3 [7] it was more than 40 µM; in the data set on Human betaherpesvirus 5, more than 200 µM. In [5], this compound gave a CC50 at 72 h of 35 µM. In data set [5], this compound showed an MCC at 72 h not below 200 µM.

With `O=c1[nH]c(=O)n(C/C=C/CCP(=O)(O)O)cc1Br`, the result in the data set filed under Homo sapiens [1] and in the data set listed under Homo sapiens [2] was inactive.

For `CCOP(=O)(/C=C/Cn1cc(C)c(=O)[nH]c1=O)OCC`, the outcome in the data set filed under Homo sapiens [1] and in the data set listed under Homo sapiens [2] was inactive.

On to `COP(=O)(C/C=C\Cn1cc(F)c(=O)n(C(=O)c2ccccc2)c1=O)OC`, for which the outcome in the data set listed under Homo sapiens [1] and in the data set filed under Homo sapiens [2] was inactive.

With `O=c1[nH]c(=O)n(C/C=C/P(=O)(O)O)cc1Br`, the result in the data set filed under Homo sapiens [1] and in the data set listed under Homo sapiens [2] was inactive.

As for `Cc1cn(C/C=C/CCP(=O)(O)O)c(=O)[nH]c1=O`, the outcome in the data set listed under Homo sapiens [1] and in the data set filed under Homo sapiens [2] was inactive.

On to `O=c1[nH]c(=O)n(C/C=C/P(=O)(O)O)cc1F`, for which the outcome in the data set filed under Homo sapiens [1] and in the data set filed under Homo sapiens [2] was inactive.

As to `Cc1cn(C/C=C/P(=O)(O)O)c(=O)[nH]c1=O`, the result in the data set filed under Homo sapiens [1] and in the data set listed under Homo sapiens [2] was inactive.

Regarding `COP(=O)(C/C=C/Cn1cc(Cl)c(=O)[nH]c1=O)OC`, the result in the data set filed under Homo sapiens [1] and in the data set listed under Homo sapiens [2] was inactive.

Turning to `Cc1cn(C/C=C/CP(=O)(OCOC(=O)C(C)(C)C)OCOC(=O)C(C)(C)C)c(=O)[nH]c1=O`, the result in the data set listed under Homo sapiens [1] and in the data set listed under Homo sapiens [2] was inactive. In addition, the half-maximal effective concentration (EC50) was 0.41 µM with Human alphaherpesvirus 3 [3]; 6.1 µM in the data set with Human alphaherpesvirus 2; 3.1 µM in the data set on Human alphaherpesvirus 1 [4]; 9.2 µM in the data set on Human alphaherpesvirus 1 [6]; 0.19 µM in the data set on Human alphaherpesvirus 3 [7]; more than 40 µM in the data set with Human betaherpesvirus 5. Further, it took 35 µM to reach half-maximal cytotoxicity in data set [5] (CC50 at 72 h). This compound displayed an MCC at 72 h in data set [5] not below 200 µM.

For the compound `CCOP(=O)(CC/C=C/Cn1cc(Cl)c(=O)[nH]c1=O)OCC`, the outcome in the data set filed under Homo sapiens [1] and in the data set listed under Homo sapiens [2] was inactive.

On to `O=c1[nH]c(=O)n(C/C=C/CCP(=O)(O)O)cc1F`, for which the outcome in the data set filed under Homo sapiens [1] and in the data set listed under Homo sapiens [2] was inactive.

Take `O=c1[nH]c(=O)n([C@H]2C[C@H](O)[C@@H](CO)O2)cc1/C=C/Br` [BRIVUDINE]: the half-maximal effective concentration (EC50) in the data set on Human alphaherpesvirus 3 [3] is 0.012 µM; in the data set on Human alphaherpesvirus 2, 30 µM; with Human alphaherpesvirus 3 [7] it was more than 100 µM; in the data set on Human betaherpesvirus 5, more than 250 µM. Also, the CC50 at 72 h in data set [5] is more than 250 µM. Further, the MCC at 72 h in data set [5] is more than 250 µM.

With `O=c1[nH]c(=O)n(C/C=C/P(=O)(O)O)cc1Cl`, the outcome in the data set filed under Homo sapiens [1] and in the data set listed under Homo sapiens [2] was inactive.

Regarding `CCOP(=O)(CC/C=C/Cn1cc(Br)c(=O)n(C(=O)c2ccccc2)c1=O)OCC`, the outcome in the data set filed under Homo sapiens [1] and in the data set listed under Homo sapiens [2] was inactive.

Regarding `CCOP(=O)(CC/C=C/Cn1cc(C)c(=O)n(C(=O)c2ccccc2)c1=O)OCC`, the outcome in the data set listed under Homo sapiens [1] and in the data set listed under Homo sapiens [2] was inactive.

Consider `CCOP(=O)(CC/C=C/Cn1cc(Br)c(=O)[nH]c1=O)OCC`, for which the outcome in the data set filed under Homo sapiens [1] and in the data set filed under Homo sapiens [2] was inactive.

On to `COP(=O)(C/C=C/Cn1cc(Br)c(=O)n(C(=O)c2ccccc2)c1=O)OC`, for which the outcome in the data set filed under Homo sapiens [1] and in the data set listed under Homo sapiens [2] was inactive.

As for `O=c1ccn(C/C=C/CP(=O)(O)O)c(=O)[nH]1`, the outcome in the data set filed under Homo sapiens [1] and in the data set filed under Homo sapiens [2] was inactive.

As to `COP(=O)(C/C=C\Cn1ccc(=O)[nH]c1=O)OC`, the result in the data set listed under Homo sapiens [1] and in the data set filed under Homo sapiens [2] was inactive.

In the case of `COP(=O)(C/C=C/Cn1cc(F)c(=O)[nH]c1=O)OC`, the result in the data set listed under Homo sapiens [1] and in the data set filed under Homo sapiens [2] was inactive.

Take `O=c1ccn(C/C=C/CCP(=O)(O)O)c(=O)[nH]1`: the result in the data set listed under Homo sapiens [1] and in the data set filed under Homo sapiens [2] was inactive.

As for `COP(=O)(C/C=C/Cn1cc(C)c(=O)[nH]c1=O)OC`, the outcome in the data set listed under Homo sapiens [1] and in the data set listed under Homo sapiens [2] was inactive.

For `O=c1[nH]c(=O)n(C/C=C/CP(=O)(O)O)cc1F`, the result in the data set listed under Homo sapiens [1] and in the data set listed under Homo sapiens [2] was inactive.

Turning to `COP(=O)(C/C=C\Cn1cc(Cl)c(=O)n(C(=O)c2ccccc2)c1=O)OC`, the result in the data set filed under Homo sapiens [1] and in the data set filed under Homo sapiens [2] was inactive.

Regarding `CCOP(=O)(/C=C/Cn1cc(F)c(=O)[nH]c1=O)OCC`, the result in the data set filed under Homo sapiens [1] and in the data set filed under Homo sapiens [2] was inactive.

For `COP(=O)(C/C=C\Cn1cc(C)c(=O)[nH]c1=O)OC`, the result in the data set filed under Homo sapiens [1] and in the data set listed under Homo sapiens [2] was inactive.

`COP(=O)(C/C=C/Cn1cc(C)c(=O)n(C(=O)c2ccccc2)c1=O)OC`: the result in the data set filed under Homo sapiens [1] and in the data set listed under Homo sapiens [2] was inactive.

`O=c1[nH]c(=O)n(C/C=C/CP(=O)(O)O)cc1Br`: the result in the data set listed under Homo sapiens [1] and in the data set listed under Homo sapiens [2] was inactive.

Take `COP(=O)(C/C=C\Cn1ccc(=O)n(C(=O)c2ccccc2)c1=O)OC`: the result in the data set listed under Homo sapiens [1] and in the data set filed under Homo sapiens [2] was inactive.

As for `COP(=O)(C/C=C\Cn1cc(C)c(=O)n(C(=O)c2ccccc2)c1=O)OC`, the outcome in the data set filed under Homo sapiens [1] and in the data set listed under Homo sapiens [2] was inactive.

Consider `Nc1nc2c(ncn2COC(CO)CO)c(=O)[nH]1` [GANCICLOVIR], for which the EC50 with Human alphaherpesvirus 2 stood at 0.05 µM; in the data set on Human alphaherpesvirus 1 [4], 0.08 µM; in the data set with Human alphaherpesvirus 1 [6] it was 3 µM; with Human betaherpesvirus 5, 5.2 µM. The compound further displayed a CC50 at 72 h in data set [5] of 164 µM. The MCC at 72 h in [5] was more than 100 µM.

As for `COP(=O)(C/C=C\Cn1cc(F)c(=O)[nH]c1=O)OC`, the result in the data set listed under Homo sapiens [1] and in the data set filed under Homo sapiens [2] was inactive.

Consider `O=c1[nH]c(=O)n(C/C=C/CCP(=O)(O)O)cc1Cl`, for which the result in the data set filed under Homo sapiens [1] and in the data set listed under Homo sapiens [2] was inactive.

For `CCOP(=O)(/C=C/Cn1cc(Br)c(=O)[nH]c1=O)OCC`, the outcome in the data set filed under Homo sapiens [1] and in the data set listed under Homo sapiens [2] was inactive.

Turning to `CCOP(=O)(CC/C=C/Cn1ccc(=O)n(C(=O)c2ccccc2)c1=O)OCC`, the result in the data set listed under Homo sapiens [1] and in the data set filed under Homo sapiens [2] was inactive.

In the case of `CCOP(=O)(/C=C/Cn1ccc(=O)[nH]c1=O)OCC`, the result in the data set listed under Homo sapiens [1] and in the data set listed under Homo sapiens [2] was inactive.
